The values that follow come from patent US20140301961A1, “COMPOUNDS WITH ANTI-AGING ACTIVITIES” (priority 2011, published 2014).

“Also recorded” adds a separate entry of the source.

One experiment deals with MMP3. The experiment is described as follows: PMA inflammation induced MMP3 production in human dermal fibroblasts. In kind it is cell-based. The conditions noted are these: PMA 10 nM, 24 h (FIG. 4). The protocol:
(§1) MMP-inhibitory activity for compounds of the invention was also assessed on human dermal fibroblasts. Dermal fibroblasts were cultured in Dulbecco's Modified Eagle Medium (DMEM) (Invitrogen) with 10% EBS (ex. Invitrogen) and 1% Pencillin/Streptavidin (ex. Invitrogen). To induce inflammation in the cells, PMA (phorbol myristate acetate) (ex. Sigma) was used at a concentration of 10 nM. […] The cells were stimulated for 24 h and the culture supernatant was collected and stored at −20° C. until further analysis. Fluorokine MultiAnalyte Profiling (xMAP) using the BioPlex (ex. Biorad) dual laser flow-based sorting and detection analyzers manufactured by Luminex corporation (Luminex, Austin, Tex.) was employed to measure levels of MMP in conditioned media samples of stimulated dermal fibroblasts. The technology incorporated polystyrene microspheres dyed internally with differing ratios of two spectrally distinct fluorophores to create a family of different spectrally addressed bead sets. The bead utilized in this study was conjugated with a biotinylated capture antibody specific for a unique MMPs, The assay was performed without antecedent serum depletion. Results were compared with medium from cells treated with vehicle only (DMSO). The assays utilized a 96-well microplate format and were processed according to the manufacturer's protocol, including generation of a standard curve for each target prepared in background assay diluents. Values that fell within the linear range of the calibration assay were accepted. Samples were analyzed using the Bio-Plex suspension array system and Bio-Plex Manager software 4.0 (Bio-Rad Laboratories, Hercules, Calif.). Quantities were determined by comparison to standard curves obtained for the different MMP.

A further experiment deals with MMP1. The experiment is described as follows: PMA inflammation induced MMP1 production in human dermal fibroblasts. It is filed as cell-based. The following applies: for inhibition of PMA inflammation induced MMP1 production: human dermal fibroblasts, PMA 10 nM, 24 h (FIG. 3); for MMP production: summary of FIGS. 2, 3 and 4 (UV skin explants and PMA dermal fibroblasts). The protocol: as §1

The subject of experiment [1] is steroid 5 alpha-reductase 3 (SRD5A3). The experiment is described as follows: Affymetrix gene array on skin explants, SRD5A3. The conditions noted are these: topical, 24 hours. It is filed as cell-based, human. An excerpt: (§2) Subcutaneous fat from full thickness skin, obtained from surgical waste material from breast reduction procedures, was removed with a scalpel. Three healthy Caucasian female donors were used for this study. The female donors differed from those of the skin-treatment study outlined previously 8 mm punch biopsies were taken from the skin (and these biopsies are now referred to as skin explants). Skin explants were put on Milipore cell culture inserts (12 mm diameter). Inserts containing skin explants were put in 6-well plates (one insert/well) and 1 mL of supplemented keratinocyte medium (ex Cascade Biologics) was added to each well. A tretinoin-containing cream (Aberela® ex. Janssen): 0.05% tretinoin in the cream, was applied topically to each explant (5 μL/cm^2) using a positive displacement pipette. A placebo cream without tretinoin was used as a control. The skin explants were incubated with tretinoin for 24 hours at 37° C. in 5% CO2-humidified air.
(§3) RNA concentration was measured with ND-1000 spectrophotometer (ex. NanoDrop Technologies) and RNA quality was evaluated using the Agilent 2100 bioanalyzer system (ex. Agilent Technologies). 250 nanograms of total RNA from each skin or skin explant sample was used to prepare biotinylated fragmented cRNA according to the GeneChip® 3′IVT Express Kit Manual (PN702646 Rev 1, ex. Affymetrix Inc.). Affymetrix GeneChip® expression arrays (Human Genome U133 Plus 2.0) were hybridized for 16 hours in a 45° C. incubator, rotated at 60 rpm. According to the GeneChip Expression Wash, Stain and Scan Manual (PN 702731 Rev 2, ex. Affymetrix Inc.) the arrays were washed and stained using the Fluidics Station 450 and scanned using the GeneChip® Scanner 3000 7G.
(§4) Analysis of the gene expression data was carried out in the statistical computing language R (http://www.r-project.org) using packages available from the Bioconductor project (www.bioconductor.org). The raw data was normalized using the robust multi-array average (RMA) method. In order to search for differentially expressed genes between the X samples and the Y samples group an empirical Bayes moderated t-test was then applied using the ‘limma’ package.
(§5) Skin explants were obtained as detailed in Example 3.1.

Experiment [2] has as its system prostaglandin-endoperoxide synthase 1 (PTGS1). The experiment is described as follows: Affymetrix gene array on skin explants, PTGS1. In kind it is cell-based, human. The conditions noted are these: topical, 24 hours.
From the text: as §2, §3, §4, §5

The test system of the next experiment is VEGF. As to the kind of experiment: Inflammation induced VEGF synthesis in cultured dermal fibroblasts. In kind it is cell-based, human. The following applies: inflammatory inducer PMA (FIG. 10). The protocol:
MMP-inhibitory activity for compounds of the invention was also assessed on human dermal fibroblasts. Dermal fibroblasts were cultured in Dulbecco's Modified Eagle Medium (DMEM) (Invitrogen) with 10% EBS (ex. Invitrogen) and 1% Pencillin/Streptavidin (ex. Invitrogen). To induce inflammation in the cells, PMA (phorbol myristate acetate) (ex. Sigma) was used at a concentration of 10 nM. […] The cells were stimulated for 24 h and the culture supernatant was collected and stored at −20° C. until further analysis.
Fluorokine MultiAnalyte Profiling (xMAP) using the BioPlex (ex. Biorad) dual laser flow-based sorting and detection analyzers manufactured by Luminex corporation (Luminex, Austin, Tex.) was employed to measure levels of MMP in conditioned media samples of stimulated dermal fibroblasts. The technology incorporated polystyrene microspheres dyed internally with differing ratios of two spectrally distinct fluorophores to create a family of different spectrally addressed bead sets. The bead utilized in this study was conjugated with a biotinylated capture antibody specific for a unique MMPs, The assay was performed without antecedent serum depletion. Results were compared with medium from cells treated with vehicle only (DMSO). The assays utilized a 96-well microplate format and were processed according to the manufacturer's protocol, including generation of a standard curve for each target prepared in background assay diluents. Values that fell within the linear range of the calibration assay were accepted. Samples were analyzed using the Bio-Plex suspension array system and Bio-Plex Manager software 4.0 (Bio-Rad Laboratories, Hercules, Calif.). Quantities were determined by comparison to standard curves obtained for the different MMP.
Cell culture and cytokine analysis was carried out on human dermal fibroblasts as described in Example 3.1. The methodology was adapted in order analyze VEGF production.

The test system of another experiment is GM-CSF. As to the kind of experiment: UV-induced GM-CSF expression in skin explants. It is filed as cell-based, human. The following applies: topical 1% w/w solution in propylene glycol, 120 mJ/cm^2 UVA and UVB (FIG. 9). The protocol:
(§6) Full thickness skin from surgical waste material from breast reductions was collected. Subcutaneous fat was removed with a scalpel. 8 mm punch biopsies was taken from the skin and referred to as skin explants. Thereafter, the explants were put on Millipore cell culture inserts (12 mm in diameter). Inserts containing skin explants were put in 6-well plate (1 insert/well) and 1 mL of supplemented keratinocyte medium (Cascade Biologics) was added to each well to allow survival and nutrition of the explants. […] Supernatants were thereafter collected and analyzed for GM-CSF production.

Experiment [3] relates to tachykinin, precursor 1 (TAC1). The experiment is described as follows: Affymetrix gene array on skin explants, TAC1. It is filed as cell-based, human. The conditions noted are these: topical, 24 hours.
From the text: as §2, §3, §4, §5

For experiment [4], the system named is Fibroblast growth factor (FGF). The experiment is described as follows: FGF production in human skin explants. It is filed as cell-based. The conditions noted are these: topical (FIG. 13). The protocol:
as §6
Human Skin Explants were Obtained and Treated as Described in Example 7.3.
The methodology described in Example 3.1 was adapted in order analyze FGF production in skin explants.

Turning to `C=C1C[C@]23C[C@@]1(O)CC[C@H]2[C@@]12C=C[C@H](O)[C@@](C)(C(=O)O1)[C@@H]2[C@@H]3C(=O)O` [Gibberellic acid, (3S,3aS,4S,4aS,7S,9aR,9bR,12S)-7,12-dihydroxy-3-methyl-6-methylene-2-oxoperhydro-4a,7-methano-9b,3-propenoazuleno[1,2-b]furan-4-carboxylic acid], the “inhibition of PMA inflammation induced MMP3 production” value in the experiment on MMP3 was “inhibition”. Moreover, in the experiment with MMP1, the “inhibition of PMA inflammation induced MMP1 production” value was “inhibition” and the MMP production result was “ability to inhibit MMP production”. Also, the SRD5A3 gene expression in experiment [1] is recorded as −0.75 log 2−ratio. In addition, the PTGS1 gene expression in experiment [2] is recorded as −1.11 log 2−ratio. In the experiment on VEGF, the “inflammatory induced VEGF synthesis” value is “reduce inflammatory induced VEGF synthesis”. Besides, the “UV-induced expression of GM-CSF” value with GM-CSF was “suppression of UV-induced expression of GM-CSF”. In experiment [3], the TAC1 gene expression is recorded as −0.62 log 2−ratio. For the same compound, the FGF production entry in experiment [4] was “higher FGF production than retinoic acid; also recorded: Stimulation of FGF production”.

In the case of `CC(=O)N[C@@H](CC(=O)O)C(=O)O` [N-Acetyl aspartic acid, (2S)-2-Acetamidobutanedioic acid], the “inhibition of PMA inflammation induced MMP3 production” value with MMP3 is reported as “inhibition”. In the experiment with MMP1, the “inhibition of PMA inflammation induced MMP1 production” value is “inhibition” and the MMP production result is listed as “ability to inhibit MMP production”. Moreover, in experiment [1], the SRD5A3 gene expression is −1.54 log 2−ratio. Also, the PTGS1 gene expression in experiment [2] is given as −0.20 log 2−ratio. The “inflammatory induced VEGF synthesis” value in the experiment on VEGF was “reduce inflammatory induced VEGF synthesis”. The “UV-induced expression of GM-CSF” value in the experiment with GM-CSF is “suppression of UV-induced expression of GM-CSF”. For the same compound, the TAC1 gene expression in experiment [3] is recorded as −1.23 log 2−ratio. In experiment [4], the FGF production result is listed as “higher FGF production than retinoic acid; also recorded: Stimulation of FGF production”.

In the case of `O=C1C[C@@H](c2ccc(O)cc2)Oc2cc(O)cc(O)c21` [Naringenin, (S)-2,3-Dihydro-5,7-dihydroxy-2-(4-hydroxyphenyl)-4H-1-benzopyran-4-one], the “inhibition of PMA inflammation induced MMP3 production” value with MMP3 is “inhibition”. Also, in the experiment on MMP1, the “inhibition of PMA inflammation induced MMP1 production” value is reported as “inhibition” and the MMP production result is on record as “ability to inhibit MMP production”. Further, the SRD5A3 gene expression in experiment [1] was 1.25 log 2−ratio. Also, the PTGS1 gene expression in experiment [2] is recorded as −3.51 log 2−ratio. Besides, the “inflammatory induced VEGF synthesis” value with VEGF was “reduce inflammatory induced VEGF synthesis”. In the experiment with GM-CSF, the “UV-induced expression of GM-CSF” value is reported as “suppression of UV-induced expression of GM-CSF”. Besides, the TAC1 gene expression in experiment [3] is on record as −2.78 log 2−ratio. Besides, in experiment [4], the FGF production result is given as “higher FGF production than retinoic acid”. Besides, the FGF production entry in experiment [4] (listed as naringenin) is reported as “Stimulation of FGF production”.
